Experiments:
[1] = test system: rats with paclitaxel-induced peripheral nerve disorder; test: Rat peripheral nerve disorder induced by paclitaxel, von Frey test; assay type: in vivo; conditions: ip, test drug intraperitoneally, single dose, higher of values 1 and 5 hours after administration, mechanical stimulus of right hind limb, normal threshold 15, read-out: Recovery Rate of 50% Reaction Threshold Value
Protocol: The effects of the compounds of the present invention were evaluated for a peripheral nerve disorder which is a side effect induced by the administration of an anti-cancer agent paclitaxel, such as hyperesthesia including allodynia induced by mechanical stimuli, which is a severe pain induced by such tactile stimuli which usually cause no pains. The compound of the present invention was intraperitoneally administered to rats as a test drug to conduct a von Frey test.
Male SD rats of six weeks age (six rats per group) were used as experimental animals, and paclitaxel (2 mg/kg) was intraperitoneally administered every other day for four times in total to prepare rats with paclitaxel-induced peripheral nerve disorder. During the period of 18 to 25 days or during the period of 20 to 27 days after the initiation of paclitaxel administration, the test drug was intraperitoneally administered in a single dose of […], and the following von Frey test was conducted.
The rats of the above (1) were placed in a transparent acrylic cage with a wire-meshed floor and habituated for about three minutes, and the 50% reaction threshold values to the mechanical stimulus of right hind limb were measured before administration of the test drug and after 1 and 5 hours from the initiation of the administration.
The measurement was conducted using von Frey filaments (manufactured by North Coast Medical Inc.) in accordance with the methods of Chaplan, et al. (Journal of Neuroscience Methods, 53(1), 55-63, 1994) and Dixon, et al. (Annual Review of Pharmacology and Toxicology, 20, 441-462, 1980). […] The case where the rat escaped at the instance of removing the filament was also called positive. When the positive reaction was found, stimulus was applied similarly with a filament of one rank weaker, and in the absence of the reaction, stimulus was similarly applied with a filament of one rank stronger, and a point where the reaction changed from negative to positive or from positive to negative was called the first two reactions. Subsequently, stimuli were applied for continuously four times by the same up-down method. A 50% reaction threshold value to the mechanical stimulus was measured using the reaction to the six stimuli in total and then (mean value)±(standard error) for each group was calculated. Incidentally, when stimulus reached to a load of 15.0 g without positive reaction, or when positive reaction continued to a load of 0.4 g, 15.0 g or 0.25 g was adopted as each of 50% reaction threshold values. With regard to the higher 50% reaction threshold value between the 50% threshold values after 1 hour and 5 hours from administration of a test drug, a recovery rate (%) of the 50% reaction threshold value was calculated by the following expression in which 15 was taken as a normal threshold value.
Recovery rate (%) of 50% reaction threshold value=[(50% reaction threshold value after 1 hour or 5 hours from administration of test drug)−(50% reaction threshold value before administration of test drug)]/[(Normal threshold value)−(50% reaction threshold value before administration of test drug)]×100

[2] = test system: MAP kinase (ERK1/2); test: Activation (phosphorylation) of MAP kinase under mild stress loads, hippocampus of chronic mild stress-induced depression model mice; assay type: in vivo; conditions: normal control 1.26±0.11, stress-loaded control 0.56±0.04
Protocol: As to the compounds of the present invention, the activation level of the MAP kinase (ERK1/2) was measured using chronic mild stress-induced depression model mice in the following manner. • (1) Preparation of Chronic Mild Stress-Induced Depression Model Mice and Administration of Test Drug
(§1) Female ddY mice of seven weeks age (n=8 to 12) were subjected to the following procedures: (A) The mice were subjected to forced swimming for 15 minutes, and then to normal breeding for two days. (B) The mice were subjected to breeding in an inclined cage for two days, and then to normal breeding for one day. (C) The mice were subjected to breeding for one day in a cage of which floor mat was made wet and then to normal breeding for one day. (D) The mice were subjected to breeding for one day with a cage rotating at a rate of 180 rotations/minute, and then to normal breeding for one day. Further, after one cycle of (A) to (D) was carried out, (B) to (D) were repeated for two cycles. As such, stress was applied over three weeks in total to prepare chronic mild stress-induced depression model mice. […]
Each of the MAP kinase (MAPK) and the phosphorylated MAP kinase (pMAPK) was subjected to immunoblot analysis, and 2 μg or 5 μg each of tissue-extracted proteins was subjected to electrophoresis. […] The staining intensity of each band was quantified, and a ratio of pMAPK to MAPK was obtained (n=4 to 7). […]

[3] = test system: transcription factor CREB; test: Activation (phosphorylation) of CREB under mild stress loads, chronic mild stress-induced depression model mice; assay type: in vivo; conditions: normal control 0.95±0.09, stress-loaded control 0.50±0.07
[4] = test system: chronic mild stress-induced depression model mice; test: Tail suspension test, suppressive effects of depression symptoms accompanying mild stress loads; assay type: in vivo; conditions: normal control 73.16±9.20, stress-loaded control 157.01±11.97
Protocol: as §1
The compounds of the present invention were administered as a test drug to the chronic mild stress-induced depression model mice of Test Example 3(1) mentioned above, and the model mice were then subjected to tail suspension test to evaluate suppressive effects of depression symptoms. […] The observations were made for 6 minutes, and the length of the immobility time, serving as an index of depression symptoms, was measured. […]

[5] = test system: chronic mild stress-induced depression model mice; test: Light-dark test, suppressive effects of anxiety symptoms accompanying mild stress loads; assay type: in vivo; conditions: normal control 110.74±5.29, stress-loaded control 74.72±4.09
Protocol: as §1, with “cycles.” for “cycles. As such, stress was applied over three weeks in total to prepare chronic mild stress-induced depression model mice.”
The compounds of the present invention were administered as a test drug to the chronic mild stress-induced depression model mice of Test Example 3(1) mentioned above, and the model mice were then subjected to light-dark test to evaluate suppressive effects of anxiety symptoms. Specifically, a wooden rectangular apparatus composed of a light chamber and a dark chamber having a height of 50 cm, a length of 50 cm, a width of 25 cm was used, a mouse was placed in a dark chamber and allowed to freely search, and then the number of times invading into a light chamber, and the time staying in the light chamber were recorded for 5 minutes. […]

[6] = 1,000 μg/kg orally once every day for three weeks
[7] = 500 μg/kg orally once every day for three weeks

Row | melting point [°C] | SMILES | change in vivo at 0.3 mg/kg [1] [%] | ratio of pMAPK to MAPK [2, 6] | ratio of pCREB to CREB [3, 6] | immobility time ([4]; 6 minutes, 1,000 μg/kg) [s] | staying time in the light chamber ([5]; 5 minutes, 1,000 μg/kg) [s] | ratio of pMAPK to MAPK [2, 7] | ratio of pCREB to CREB [3, 7] | immobility time ([4]; 6 minutes, 500 μg/kg) [s] | staying time in the light chamber ([5]; 5 minutes, 500 μg/kg) [s]
1 | 88 to 89 | CCCCCCC/C=C/C(=O)N1CCC(C(=O)O)CC1 [Compound 10, 1-((E)-2-Decenoyl)piperidine-4-carboxylic acid] | 44.6 | 1.00±0.04 | 0.94±0.10 | 96.03 ± 25.24 | 107.05 ± 8.29 |  |  |  | 
2 |  | CCCCCCC/C=C/C(=O)N1CCC(N(C)C)CC1 [Compound 12, 1-((E)-2-decenoyl)-4-dimethylaminopiperidine] | 49.7 |  |  |  |  | 1.09±0.04 | 1.08±0.14 | 69.26 ± 16.41 | 108.70 ± 12.06

From US9428477B2, “Trans-2-decenoic acid derivative and drug containing same” (NIPPON ZOKI PHARMACEUTICAL CO., LTD., priority 2012, dated 2016)
